Reference: PubChem BioAssay AID1117319 (Southern Research Institute, 2015)
Inconclusive results are not listed.

Target: Virion infectivity factor (Human immunodeficiency virus type 1 group M subtype B (isolate BH10)) + Virion infectivity factor (Human immunodeficiency virus type 1 group M subtype B (isolate BRU/LAI)) + Virion infectivity factor (Human immunodeficiency virus type 1 group M subtype B (isolate PCV12)) + Virion infectivity factor (Human immunodeficiency virus type 1 group M subtype B (isolate HXB2)) + DNA dC->dU-editing enzyme APOBEC-3G (Homo sapiens) (UniProt P69720+P69721+P69722+P69723+Q9HC16)
Assay: HIV-1 Vif–A3G interaction blockers – biochemical, TR-FRET, GST-Vif 1-94, biotin-A3G peptide, dose response retest, primary screen (AID 1117319);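 note: Vif residues 1-94 fused to GST binding biotinylated APOBEC3G peptide 110-148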
Details: TR-FRET GST-Vif / biotin-A3G peptide binding

N#CC(C#N)=Cc1cccn1-c1ccc(C(=O)O)cc1
IC50: 10.3 µM

CCOC(=O)CNc1ccc2c(c1)OCO2
IC50: 2.46 µM

CC(=O)N1CCN(c2nc(-c3ccco3)c3c(c2C#N)CC(C)(C)SC3)CC1
IC50: 25.3 µM

Cc1ccc(C(=O)N/N=C\c2cc(Br)c(Br)o2)cn1
IC50: 6.24 µM

CC(C)N1C(=O)CC(Nc2ccc(N3CCOCC3)cc2)C1=O (stereo not given)
IC50: 2.9 µM

Cc1ccc(N2CCN(c3ccc(C)cc3)C2c2ccccn2)cc1
IC50: 75.8 µM

COc1cc(C(=O)NCc2nnc(SCC(=O)Nc3nc4ccc(C)cc4s3)o2)cc(OC)c1OC
IC50: 45.3 µM

O=[N+]([O-])c1ccc2c([N+](=O)[O-])ccc3c2c1CC3
IC50: 12.2 µM

O=C1NC(=S)S/C1=C\c1ccc(SCc2ccco2)o1
IC50: 0.81 µM

Cc1cc2nc(C)n(CCCNC(=O)Nc3ccc(F)cc3)c2cc1C
IC50: 47.6 µM

Cc1ccc(C)n1-c1ccc(-c2nnc3n2CCCCC3)s1
IC50: 8.58 µM

CCOc1ccc(-c2nnn(CC(=O)c3ccc4c(c3)OCCO4)n2)cc1OCC
IC50: 29.1 µM

CN=c1scc(-c2cccs2)n1/N=C/c1ccc(O)c(O)c1O
IC50: 1.95 µM

C/C(=N\O)C(=O)NCc1ccccn1
IC50: 77.5 µM

COc1ccc(CN2C(=O)NC(=O)/C(=C/c3ccc([N+](=O)[O-])o3)C2=O)cc1
IC50: 4.49 µM

O=C1NC(c2ccc(Br)cc2)=N/C1=C/c1ccco1
IC50: 7.41 µM

NC(=O)c1cc(N)ccc1N1CCCC1
IC50: 1.12 µM

Cc1nc2c(=O)[nH]c(=S)[nH]c2[nH]c1=O
IC50: 50.7 µM

Cc1c2ccccc2nc2c(F)c(N(C)C)c(F)c(F)c12
IC50: 15.7 µM

Cc1[nH]c2ccccc2c1C(=O)Cn1c(=O)oc2ccccc21
IC50: 96.2 µM

COc1ccc2c(c1)C(=O)c1ccccc1CO2
IC50: 52.2 µM

C=C(C)C(=O)Nc1cccc(C2=NOC3(C2)C[C@H](C(N)=O)N(C(=O)COc2ccc(Cl)cc2)C3)c1 (stereo not given in full)
IC50: 1.28 µM

CC(C)NC[C@@H](O)c1ccc(O)c(O)c1
IC50: 4.93 µM

CC(=O)NC1=NC(=O)/C(=C/c2cc(C)n(-c3cccc(C(=O)O)c3)c2C)S1
IC50: 7.28 µM

Nc1cc(C(=O)O)ccc1N1CCCCC1
IC50: 15 µM

Cc1cc(-c2cc(-c3ccc(Cl)cc3)nc(N)c2C#N)co1
IC50: 12.4 µM

S=c1[nH]nc(COc2ccc3c(c2)OCO3)n1-c1ccccc1
IC50: 48.3 µM

O=C1CCC/C(=N\NC(=O)c2ccc(COc3cccc4cccnc34)cc2)C1
IC50: 17.1 µM

O=C(O)C(Cc1ccccc1)N1C(=O)/C(=C/C=C/c2ccco2)SC1=S (stereo not given)
IC50: 2.11 µM

Cc1cc2ccccc2n1CCNC(=O)C1CCCCC1
IC50: 37.2 µM

COc1ccc(NS(=O)(=O)c2cccc(Cl)c2Cl)cc1S(=O)(=O)N1CCCCC1
IC50: 76.1 µM

C=C(C)C(=O)Nc1cccc(C2=NOC3(C2)C[C@@H](C(N)=O)N(C(=O)CC(c2ccccc2)c2ccccc2)C3)c1 (stereo not given in full)
IC50: 3.06 µM

CC(/C=N/n1c(-c2ccncc2)n[nH]c1=S)=C\c1ccco1
IC50: 5.1 µM

COC(=O)c1cnn2c(C(F)(F)F)cc(-c3ccco3)nc12
IC50: 7.16 µM

CC(C)CN(C(=O)CN1CCN(c2ccc(O)cc2)CC1)c1c(N)n(CC(C)C)c(=O)[nH]c1=O
IC50: 12.3 µM

O=C(Cc1csc(N2CCOCC2)n1)N/N=C/c1ccc(O)c(O)c1O
IC50: 1.3 µM

O=[N+]([O-])c1cc(CN2CCOCC2)c2cccnc2c1O
IC50: 4.07 µM

Cc1cccc(C)c1NC(=O)CSc1nnc(-c2ccco2)c(-c2ccco2)n1
IC50: 2.05 µM

CCOC(=O)C(C)N1C(=O)S/C(=C\c2ccc(-c3ccccc3C(=O)O)o2)C1=O (stereo not given)
IC50: 10.8 µM

O=C(O)c1cc(Nc2cc(Cl)c3nonc3c2[N+](=O)[O-])ccc1O
IC50: 57.6 µM

COc1ccc2c(c1)O[C@@H](c1ccc3c(c1)OCO3)[C@H](OC(=O)Nc1cc(OC)c(OC)c(OC)c1)C2=O
IC50: 66.6 µM

CCC(C)Cn1c(O)cc2nn(-c3nc4ccccc4s3)c(=O)c-2c1C (stereo not given)
IC50: 2.65 µM

CC[n+]1c(/C=C2\C=C(C)CC(C)(C)C2)sc2ccccc21
IC50: 57.9 µM

CN=c1scc(C)n1/N=C/c1ccc(O)c(O)c1O
IC50: < 1.84 µM

O=C(O)C1=NN(c2cc(Cl)c(S(=O)(=O)O)cc2Cl)C(=O)C1
IC50: 85.7 µM

CC(C)c1ccc(S(=O)(=O)/N=C2/C=CC(=O)c3ccccc32)cc1
IC50: 5.36 µM

O=c1c2cc(N3CCOCC3)ccc2[nH]c(=S)n1Cc1ccco1
IC50: 7.24 µM

O=C(c1coc(=O)c(Br)c1)N1CCCc2ccccc21
IC50: 24.3 µM

CCOC(=O)C1=C(N)n2c(s/c(=C/c3ccco3)c2=O)=C(C(=O)OC)C1c1ccco1 (stereo not given)
IC50: 2.17 µM

Cc1cc(C)c(C(=O)/C=C/c2ccco2)c(=O)[nH]1
IC50: 8.81 µM

O=C1Cc2cccc(=O)c(O)c2C(=O)O1
IC50: 14 µM

CN(C(=S)Nc1cccnc1)c1ccc(O)cc1
IC50: 1.85 µM

Cc1sc2ncnc(SCc3ccco3)c2c1C
IC50: 28.2 µM

CNc1ccccc(C(=O)/C=C/c2ccccc2OC)c1=O
IC50: 3.9 µM

O=C(Nc1cc(Cl)ccn1)C1CCN(S(=O)(=O)c2cccs2)CC1
IC50: 56.8 µM
